# Experimental data published in ChEMBL document CHEMBL1125092, “Nonneurotoxic tetralin and indan analogues of 3,4-(methylenedioxy)amphetamine (MDA)” (J Med Chem, 1990).
# Columns and labels:
# Format in all cases: functional
# [1] = test system: Rattus norvegicus; assay: Hallucinogenic property was determined in groups of LSD trained rats and percentage of animals disrupted was reported at 5.82 (umol/kg),(number of animals = 11)
# [2] = test system: Rattus norvegicus; assay: Tested for stimulus generation in rats trained to discriminate LSD from saline at a dose 7.77 (umol/kg),(number of animals = 15)
# [3] = test system: Rattus norvegicus; assay: Percentage of animals disrupted was determined in groups of MDMA trained rats at a dose 1.94 (umol/kg),(no of animals=10)
# [4] = test system: Rattus norvegicus; assay: Hallucinogenic property was determined in groups of LSD trained rats and percentage of animals disrupted was reported at a dose 3.88 (umol/kg),(number of animals = 10)
# [5] = test system: Rattus norvegicus; assay: Tested for stimulus generation in rats trained to discriminate LSD from saline at a dose 3.88 (umol/kg),(number of animals = 10)
# [6] = test system: Rattus norvegicus; assay: Percentage of animals disrupted was determined in groups of LSD trained rats at a dose of 10.67 (umol/kg),(no of animals = 5)
# [7] = test system: Rattus norvegicus; assay: Tested for stimulus generation in rats trained to discriminate LSD from saline at a dose 5.82 (umol/kg),(number of animals = 11)
# [8] = test system: Rattus norvegicus; assay: Hallucinogenic property was determined in groups of MDMA trained rats and percentage of animals disrupted was reported at a dose 7.76 (umol/kg),(number of animals = 11)
# [9] = test system: Rattus norvegicus; assay: Tested for stimulus generation in rats trained to discriminate +/-MDMA from saline at 1.94 (umol/kg),(number of animals = 10)
# [10] = test system: Rattus norvegicus; assay: Hallucinogenic property was determined in groups of LSD trained rats and percentage of animals disrupted was reported at a dose 9.70 (umol/kg),(number of animals = 13)
# [11] = test system: Rattus norvegicus; assay: Hallucinogenic property was determined in groups of MDMA trained rats and percentage of animals disrupted was reported at a dose 3.88 (umol/kg),(number of animals = 11)
# [12] = test system: Rattus norvegicus; assay: Hallucinogenic property was determined in groups of LSD trained rats and percentage of animals disrupted was reported at a dose 7.77 (umol/kg),(number of animals = 15)
# [13] = test system: Rattus norvegicus; assay: Tested for stimulus generation in rats trained to discriminate +/-MDMA from saline at 7.76 (umol/kg),(number of animals = 11)
# [14] = test system: Rattus norvegicus; assay: Hallucinogenic property was determined in groups of MDMA trained rats and percentage of animals disrupted was reported at a dose 11.64 (umol/kg),(number of animals = 6)
# [15] = test system: Rattus norvegicus; assay: Tested for stimulus generation in rats trained to discriminate LSD from saline at a dose 9.70 (umol/kg),(number of animals = 13)
# [16] = test system: Rattus norvegicus; assay: Tested for stimulus generation in rats trained to discriminate +/-MDMA from saline at 3.88 (umol/kg),(number of animals = 11)
# [17] = test system: Rattus norvegicus; assay: Hallucinogenic property was determined in groups of MDMA trained rats and percentage of animals disrupted was reported at 8.78 (umol/kg),(number of animals = 12
# [18] = test system: Rattus norvegicus; assay: Hallucinogenic property was determined in groups of MDMA trained rats and percentage of animals disrupted was reported at a dose 2.74 umol/kg),(number of animals = 12
# [19] = test system: Rattus norvegicus; assay: Tested for stimulus generation in rats trained to discriminate LSD from saline at a dose 0.55 (umol/kg),(number of animals = 9)
# [20] = test system: Rattus norvegicus; assay: Tested for stimulus generation in rats trained to discriminate +/-MDMA from saline at 3.29 (umol/kg),(number of animals = 10)
# [21] = test system: Rattus norvegicus; assay: Hallucinogenic property was determined in groups of MDMA trained rats and percentage of animals disrupted was reported at a dose 7.69 (umol/kg),(number of animals = 12)
# [22] = test system: Rattus norvegicus; assay: Hallucinogenic property was determined in groups of LSD trained rats and percentage of animals disrupted was reported at a dose 8.78 (umol/kg),(number of animals = 11)
# [23] = test system: Rattus norvegicus; assay: Hallucinogenic property was determined in groups of MDMA trained rats and percentage of animals selecting drug lever was reported at 13.18 (umol/kg),(number of animals = 5
# [24] = test system: Rattus norvegicus; assay: Hallucinogenic property was determined in groups of LSD trained rats and percentage of animals disrupted was reported at a dose 0.55 (umol/kg),(number of animals = 9)
# [25] = test system: Rattus norvegicus; assay: Tested for stimulus generation in rats trained to discriminate +/-MDMA from saline at 1.10 (umol/kg),(number of animals = 8)
# [26] = test system: Rattus norvegicus; assay: Tested for stimulus generation in rats trained to discriminate +/-MDMA from saline at 8.78 (umol/kg),(number of animals = 12)
# [27] = test system: Rattus norvegicus; assay: Hallucinogenic property was determined in groups of LSD trained rats and percentage of animals disrupted was reported at a dose 4.39 (umol/kg),(number of animals = 12)
# [28] = test system: Rattus norvegicus; assay: Tested for stimulus generation in rats trained to discriminate +/-MDMA from saline at 4.39 (umol/kg),(number of animals = 9)
# [29] = test system: Rattus norvegicus; assay: Tested for stimulus generation in rats trained to discriminate LSD from saline at a dose 6.59 (umol/kg),(number of animals = 15)
# [30] = test system: Rattus norvegicus; assay: Tested for stimulus generation in rats trained to discriminate LSD from saline at a dose 1.10 (umol/kg),(number of animals = 9)
# [31] = test system: Rattus norvegicus; assay: Hallucinogenic property was determined in groups of LSD trained rats and percentage of animals disrupted was reported at 1.10 (umol/kg),(number of animals = 9)
# [32] = test system: Rattus norvegicus; assay: Tested for stimulus generation in rats trained to discriminate +/-MDMA from saline at 2.2 (umol/kg),(number of animals = 11)
# [33] = test system: Rattus norvegicus; assay: Tested for stimulus generation in rats trained to discriminate +/-MDMA from saline at 6.59 (umol/kg),(number of animals = 9)
# [34] = test system: Rattus norvegicus; assay: Tested for stimulus generation in rats trained to discriminate LSD from saline at a dose 4.39 (umol/kg),(number of animals = 12)
# [35] = test system: Rattus norvegicus; assay: Hallucinogenic property was determined in groups of LSD trained rats and percentage of animals disrupted was reported at a dose 2.2 (umol/kg),(number of animals = 8)
# [36] = test system: Rattus norvegicus; assay: Hallucinogenic property was determined in groups of MDMA trained rats and percentage of animals disrupted was reported at a dose 4.39 (umol/kg),(number of animals = 9)
# [37] = test system: Rattus norvegicus; assay: Hallucinogenic property was determined in groups of LSD trained rats and percentage of animals disrupted was reported at a dose 6.59 (umol/kg),(number of animals = 15)
# [38] = test system: Rattus norvegicus; assay: Hallucinogenic property was determined in groups of MDMA trained rats and percentage of animals disrupted was reported at a dose 3.29 (umol/kg),(number of animals =10
# [39] = test system: Rattus norvegicus; assay: Tested for disruption in more than 50% rats trained to discriminate LSD from saline at a dose 8.78(uM/kg) (no. of animals =11)
# [40] = test system: Rattus norvegicus; assay: Tested for stimulus generation in rats trained to discriminate LSD from saline at 2.2 (umol/kg),(number of animals = 8)
# [41] = test system: Rattus norvegicus; assay: Hallucinogenic property was determined in groups of MDMA trained rats and percentage of animals disrupted was reported at a dose 2.2 (umol/kg),(number of animals = 11
# [42] = test system: Rattus norvegicus; assay: Hallucinogenic property was determined in groups of LSD trained rats and percentage of animals disrupted was reported at a dose 2.74 (umol/kg),(number of animals = 8)
# [43] = test system: Rattus norvegicus; assay: Hallucinogenic property was determined in groups of MDMA trained rats and percentage of animals disrupted was reported at a dose 6.59 (umol/kg),(number of animals = 9
# [44] = test system: Rattus norvegicus; assay: Tested for stimulus generation in rats trained to discriminate LSD from saline at a dose 2.74 (umol/kg),(number of animals = 8)
# [45] = test system: Rattus norvegicus; assay: Tested for stimulus generation in rats trained to discriminate +/-MDMA from saline at 2.74 (umol/kg),(number of animals = 12)
# [46] = test system: Rattus norvegicus; assay: Hallucinogenic property was determined in groups of MDMA trained rats and percentage of animals disrupted was reported at a dose 1.1 (umol/kg),(number of animals = 8
# [47] = test system: Rattus norvegicus; assay: Tested for stimulus generation in rats trained to discriminate +/-MDMA from saline at 7.69 (umol/kg),(number of animals = 12)
smiles,measurement,setting,value
COc1cc(C)c(OC)c2c1CC(N)CC2 (configuration not stated),D,[1],27%
same,SDL,[2],13%
same,D,[3],20%
same,D,[4],20%
same,SDL,[5],25%
same,D,[6],100%
same,SDL,[7],38%
same,D,[8],27%
same,SDL,[9],38%
same,D,[10],69%
same,D,[11],27%
same,D,[12],47%
same,SDL,[13],38%
same,D,[14],83%
same,SDL,[15],0%
same,SDL,[16],50%
NC1CCc2c(ccc3c2OCO3)C1 (configuration not stated),D,[17],42%
same,D,[18],33%
same,SDL,[19],0%
same,SDL,[20],63%
same,D,[21],33%
same,D,[22],55%
same,D,[23],100%
same,D,[24],11%
same,SDL,[25],0%
same,SDL,[26],71%
same,D,[27],33%
same,SDL,[28],50%
same,SDL,[29],38%
same,SDL,[30],13%
same,D,[31],11%
same,SDL,[32],63%
same,SDL,[33],75%
same,SDL,[34],25%
same,D,[35],0%
same,D,[36],11%
same,D,[37],47%
same,D,[38],20%
same,SDL,[39],71%
same,SDL,[40],25%
same,D,[41],27%
same,D,[42],0%
same,D,[43],11%
same,SDL,[44],25%
same,SDL,[45],63%
same,D,[46],38%
same,SDL,[47],75%
